Results published in paper PMC12505902, “Inhibitors of trehalose-6-phosphate synthase activity in fungal pathogens compromise thermal tolerance pathways” (mBio, 2025).
Converted amounts (≈) assume the structure as drawn. Read-outs that look alike come from different tables or passages of the source. Blank lines part the entries; values can stand above or below the compound they belong to.

Legend:
6xHis-CaTps1 [1] = target: T1, 6xHis-CaTps1 (Candida albicans, UniProt Q92410); experiment: UDP Transcreener FP assay, primary screen of the 3PP library; assay type: biochemical; conditions: for inhibition at 500 µM: read-out: CaTps1 FP (% inhibition)
T1 construct: Briefly, the full-length; thrombin cleavage site (pET-28a linker) (N); made in house; host or cells: E. coli BL21(DE3)pLysS
T1 sequence (Q92410 1-478): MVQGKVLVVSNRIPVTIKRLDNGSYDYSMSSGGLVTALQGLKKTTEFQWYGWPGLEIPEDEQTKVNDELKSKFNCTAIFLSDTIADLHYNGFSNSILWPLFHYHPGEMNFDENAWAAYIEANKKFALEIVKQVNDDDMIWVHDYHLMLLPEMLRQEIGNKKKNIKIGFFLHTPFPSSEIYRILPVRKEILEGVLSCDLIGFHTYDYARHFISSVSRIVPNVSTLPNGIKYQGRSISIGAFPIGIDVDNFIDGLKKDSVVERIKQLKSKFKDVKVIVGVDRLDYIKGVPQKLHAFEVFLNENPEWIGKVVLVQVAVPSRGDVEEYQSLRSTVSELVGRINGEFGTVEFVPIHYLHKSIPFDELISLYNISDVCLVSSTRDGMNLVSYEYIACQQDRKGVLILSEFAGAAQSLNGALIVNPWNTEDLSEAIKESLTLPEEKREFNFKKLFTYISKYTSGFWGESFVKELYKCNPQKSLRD
From the text: As the first step of the trehalose biosynthesis pathway, Tps1 synthesizes T6P from the substrates UDP-glucose and G6P, followed by the release of UDP and T6P ([16]). To identify a small molecule inhibitor of Tps1 activity, we adapted an HTS utilizing the UDP Transcreener FP assay ([33], [34]). The FP assay detects the UDP released as a result of the Tps1-mediated enzymatic reaction (Fig. 1A). The FP assay Z’ factor, which describes the suitability of an assay for an HTS, is 0.87, indicating an ideal signal-to-noise ratio (Fig. S1A) ([35]). There was a greater than 175 millipolarization (mP) shift between the positive control novobiocin, an inhibitor with activity against a bacterial trehalose-P-synthase, and the negative control dimethyl sulfoxide (DMSO) (Fig. S1A) ([36]). Recombinant Tps1 from C. albicans, hereafter referred to as CaTps1, was expressed in E. coli and purified via an N-terminal 6xHis-tag and Ni^2-NTA affinity chromatography, followed by size exclusion chromatography (Fig. 1B). A 3-point pharmacophore (3PP) library, which consisted of a subset of 750 compounds of less than 300 Da in molecular mass from the St. Jude Children’s Research Hospital chemical library, was screened for the ability to inhibit 6xHis-CaTps1 activity ([37]). In the primary screen, 32 (4.3 %) compounds that inhibited the activity of 6xHis-CaTps1 by more than 10% at 500 µM concentration were identified (Fig. 1C and D). A 10% cutoff provided a significant number of hits to validate using a dose response assay (Fig. S1B). At the completion of the screen, seven compounds that inhibit the activity of CaTps1 in a dose-dependent manner were selected for further investigation (Fig. 1E; Table 1).
The glycosyltransferase activity of 6xHis-CaTps1, which results in the release of UDP, was measured using the UDP Transcreener FP assay (BellBrook Labs #3018, Madison, WI). The St. Jude Children’s Hospital (Memphis, TN) 3PP library was screened ([37]). Assays were performed at 37°C for 60 minutes in a 384-well plate using 5 µM 6xHis-CaTps1 in assay buffer containing 50 mM Tris-HCl pH 7.5, 300 mM NaCl, 10 mM MgCl2, and 1 mM dithiothreitol (DTT). Fluorescence polarization was detected using a BMG Labtech plate reader. Each assay plate contained the following additional control wells: (i) no antibody control, (ii) DMSO vehicle control, (iii) novobiocin positive control, and (iv) novobiocin dose-response. Screens were performed by the addition of single-point additions of test molecules to the above assay. The Z’ factor was calculated according to guidelines by Zhang et al., with a Z-factor of 0.5 and 1.0 indicating an excellent assay ([35]).

C. neoformans [2] = test system: C. neoformans; design: method as in earlier work; conditions: Supplemental Table 5; ref (13); cited from earlier work
[3] = design: method as in PMID 27248439; conditions: ref [12]; cited from earlier work
C. neoformans [4] = test system: C. neoformans; design: method as in PMID 27248439; conditions: ref [12]; cited from earlier work
Cryptococcus gattii = test system: Cryptococcus gattii; design: method as in PMID 27248439; conditions: ref [12]; cited from earlier work
C. albicans = conditions: Supplemental Table 5, cited from earlier work
6xHis-CaTps1 [5] = target: T1, 6xHis-CaTps1; experiment: Spectrophotometric-coupled Tps1 enzyme activity assay; assay type: biochemical, C. albicans; conditions: compounds diluted in DMSO, normalized to the DMSO control
Description: Fig 2 4456dh binds Tps1 and inhibits Tps1 activity. (A) Structure of 4456dh. (B and C) Glo-melt thermal shift assays reveal 4456dh destabilizes 6xHis-CaTps1 (B) and 6xHis-CnTps1 (C). The first derivative of the raw data was used to determine the melting temperature of 1 µM 6xHis-CaTps1 (B) and 1 µM 6xHis-CnTps1 (C) treated without (black) or with 2 mM 4456dh (red). […] The resulting dose-response curves were fitted to a one-site binding model to extract Kd values; the SD was calculated using the Kd values from each independent experiment (n = 3). (F) Tps1 enzyme activity assay with 5 µM 6xHis-CaTps1 (F) and 6xHis-CnTps1 (G) ±1 mM 4456dh. Error bars represent SE. […]
The ability of 4456dh to inhibit the activity of CaTps1 was tested using a spectrophotometric-coupled Tps1 enzyme assay, in which recombinant 6xHis-CaTps1 was incubated with 1 mM 4456dh at 4°C for 16 hours. […] Similarly, the effect of 1 mM 4456dh on 6xHis-CnTps1 activity was determined. […]
82 determined by SDS-PAGE analysis, were pooled and concentrated to 1 mg/mL for downstream […]
93 The data were acquired with MO.Control 1.5.3 (NanoTemper Technologies GmbH). Recorded
94 data were analyzed with MO.Affinity Analysis 2.2.7 (NanoTemper Technologies GmbH). […]
100 2X Glo-melt dye. Thermal denaturation was measured using an RT-PCR thermocycler (BioRad) […]
102 determined by identifying the inflection point of the derivative data. […]

[6] = primary screen, 500 µM compound, 5 µM 6xHis-CaTps1, 37°C 60 minutes

Compound: O=C(C1CC1)N1CCCNCC1 [SJ000866536-1]
inhibition at 500 µM (6xHis-CaTps1 [1]; [6]): 18.6%

Compound: N#CCC(=O)c1ccco1 [SJ000805629-1]
inhibition at 500 µM (6xHis-CaTps1 [1]; [6]): 32.2%

Compound: C[C@@H]1[C@H](O)[C@@H](C)/C=C/C=C/C=C/C=C/C=C/C=C/C=C/[C@H](O[C@@H]2O[C@H](C)[C@@H](O)[C@H](N)[C@@H]2O)C[C@@H]2O[C@](O)(C[C@@H](O)C[C@@H](O)[C@H](O)CC[C@@H](O)C[C@@H](O)CC(=O)O[C@H]1C)C[C@H](O)[C@H]2C(=O)O [Amphotericin B]
MIC80 (C. neoformans [2]): 2 µg/mL (≈ 2.16 µM)

Compound: Cc1cc(C(C#N)c2ccc(Cl)cc2)c(Cl)cc1NC(=O)c1cc(I)cc(I)c1O (centres unmarked) [Closantel]
antifungal activity in murine models [3]: does not have antifungal activity
activity in vitro (C. neoformans [4]): potent activity
activity in vitro (Cryptococcus gattii): potent activity

Compound: C[C@@H](c1ncncc1F)[C@](O)(Cn1cncn1)c1ccc(F)cc1F [Voriconazole]
MIC80 (C. albicans; ref (11)): 0.06 µg/mL (≈ 0.172 µM)

Compound: CN1CCc2c(sc(N)c2C#N)C1 [SJ000866390-1]
inhibition at 500 µM (6xHis-CaTps1 [1]; [6]): 36.4%

millipolarization (mP) shift between positive control and DMSO (6xHis-CaTps1 [1]; positive control versus negative control DMSO): greater than 175 mP
Compound: CO[C@@H]1[C@@H](OC(N)=O)[C@@H](O)[C@H](Oc2ccc3c(O)c(NC(=O)c4ccc(O)c(CC=C(C)C)c4)c(=O)oc3c2C)OC1(C)C [novobiocin, reference compound]

Compound: Nc1[nH]c(=O)ncc1F [Flucytosine]
MIC80 (C. neoformans [2]): 8 µg/mL (≈ 62 µM)

Compound: CN(C)C(C#N)c1ccccc1Cl (centres unmarked) [SJ000866063-1]
inhibition at 500 µM (6xHis-CaTps1 [1]): 19%

Compound: Cn1cc(-c2csc(NC(=O)Cc3ccccn3)n2)cn1 [Compound 4456]
effect of SJ6675 derivatives on CaTps1 activity (6xHis-CaTps1 [5]): significantly inhibited the activity of CaTps1

Compound: OC(Cn1cncn1)(Cn1cncn1)c1ccc(F)cc1F [Fluconazole]
MIC80 (C. albicans; ref (11)): 1.84 µg/mL (≈ 6.01 µM)

Compound: CC[C@H](C)C[C@H](C)CCCCCCCCC(=O)N[C@H]1C[C@@H](O)[C@@H](NCCN)NC(=O)[C@@H]2[C@@H](O)CCN2C(=O)[C@H]([C@H](O)CCN)NC(=O)[C@H]([C@H](O)[C@@H](O)c2ccc(O)cc2)NC(=O)[C@@H]2C[C@@H](O)CN2C(=O)[C@H]([C@@H](C)O)NC1=O [Caspofungin]
MIC80 (C. albicans; ref (12)): 1 µg/mL (≈ 0.915 µM)

Compound: CC(Cc1ccoc1)NS(C)(=O)=O (centres unmarked) [SJ000866077-1]
inhibition at 500 µM (6xHis-CaTps1 [1]; [6]): 11.1%

Compound: Nc1nc(-c2ccoc2)cs1 [SJ000866675-1, [4-furan-3-yl]thiazol-2-amine]
inhibition at 500 µM (6xHis-CaTps1 [1]; [6]): 13.7%

Compound: CN(C)C(C#N)c1c(F)cccc1Cl (centres unmarked) [SJ000866107-1]
inhibition at 500 µM (6xHis-CaTps1 [1]): 18.2%
